Measurements: patent publication US20180008587A1, “THIOHYDANTOIN ANDROGEN RECEPTOR ANTAGONISTS FOR THE TREATMENT OF CANCER” (Jaressen Pharmaceutica NV, priority 2016, published 2018)
Residue numbers refer to the chain shown, from its start. Like-named read-outs stand apart in the source and are kept apart here.

Assays:
Format in all cases: cell-based
[1] = molecular target: T1, F876L mutant Androgen Receptor (AR-F876L) (Homo sapiens, UniProt P10275, F877L); assay: LNCaP-AR-F876L ANT reporter assay (ARE firefly luciferase, antagonist mode); settings: for Emax: read-out: LNCaP-AR-F876L ANT MAX % Inh; for IC50: read-out: LNCaP-AR-F876L ANT pIC50 (converted)
T1 construct: expressed in transfected cells; host or cells: LNCaP (LNCaP F876L)
T1 sequence (P10275 1-920 F877L): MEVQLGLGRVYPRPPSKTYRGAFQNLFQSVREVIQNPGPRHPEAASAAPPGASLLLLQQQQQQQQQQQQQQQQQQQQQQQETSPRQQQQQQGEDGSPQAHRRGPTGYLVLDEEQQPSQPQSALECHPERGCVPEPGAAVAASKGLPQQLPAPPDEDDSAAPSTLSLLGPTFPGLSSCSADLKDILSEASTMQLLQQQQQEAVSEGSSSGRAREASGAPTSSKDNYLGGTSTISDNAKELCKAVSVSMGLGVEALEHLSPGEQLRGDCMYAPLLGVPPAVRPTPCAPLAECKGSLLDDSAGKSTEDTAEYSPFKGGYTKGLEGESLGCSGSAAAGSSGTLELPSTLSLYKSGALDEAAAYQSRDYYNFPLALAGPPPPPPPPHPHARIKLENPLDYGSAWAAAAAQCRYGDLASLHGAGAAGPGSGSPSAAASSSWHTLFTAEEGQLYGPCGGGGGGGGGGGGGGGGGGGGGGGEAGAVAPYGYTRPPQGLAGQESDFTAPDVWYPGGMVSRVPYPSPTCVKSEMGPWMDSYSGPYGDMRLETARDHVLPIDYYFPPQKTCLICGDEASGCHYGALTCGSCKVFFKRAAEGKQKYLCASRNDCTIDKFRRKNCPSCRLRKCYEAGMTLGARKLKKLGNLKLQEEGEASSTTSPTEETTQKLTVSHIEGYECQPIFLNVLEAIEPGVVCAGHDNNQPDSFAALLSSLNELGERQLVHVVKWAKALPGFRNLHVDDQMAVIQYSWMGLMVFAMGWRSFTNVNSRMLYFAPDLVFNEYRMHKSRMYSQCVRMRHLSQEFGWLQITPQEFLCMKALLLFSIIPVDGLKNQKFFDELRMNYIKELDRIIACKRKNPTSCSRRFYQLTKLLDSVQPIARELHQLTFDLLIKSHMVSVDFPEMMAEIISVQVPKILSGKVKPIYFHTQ
How it was run: (§1)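 Read-out is luciferase luminescence taken 1 h after Steady-Glo addition, following 20-24 h compound exposure at 37 °C in LNCaP pools stably carrying wild-type or F876L AR. Cells were grown in charcoal-stripped serum. Antagonist wells received agonist at 400 pM (WT) or 600 pM (F876L).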

[2] = molecular target: T2, wild-type Androgen Receptor (AR-wt) (Homo sapiens, UniProt P10275); assay: LNCaP-AR-wt AG reporter assay (ARE firefly luciferase, agonist mode); settings: for Emax: read-out: LNCaP-AR-wt AG MAX % Stim
T2 construct: expressed in transfected cells; host or cells: LNCaP (LNCaP AR (cs))
T2 sequence (P10275 1-920): T1 sequence (P10275 1-920 F877L) with L877F
How it was run: (§2)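 LNCaP cells stably expressing wild-type or F876L AR (puromycin-selected pooled populations) were cultured in charcoal-stripped serum medium. In antagonist mode, agonist challenge was 400 pM for wild-type and 600 pM for F876L.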

[3] = molecular target: T1, F876L mutant Androgen Receptor (AR-F876L); assay: LNCaP-AR-F876L AG reporter assay (ARE firefly luciferase, agonist mode); settings: for Emax: read-out: LNCaP-AR-F876L AG MAX % Stim
How it was run: as §2

[4] = molecular target: T2, wild-type Androgen Receptor (AR-wt); assay: LNCaP-AR-wt ANT reporter assay (ARE firefly luciferase, antagonist mode); settings: for IC50: antagonist mode, 400 pM R-1881 challenge, −Log10(IC50 [Molar]), read-out: LNCaP-AR-wt ANT pIC50 (converted); for Emax: read-out: LNCaP-AR-wt ANT MAX % Inh
How it was run: as §1

[5] = maximum % inhibition of R1881 control response over tested concentration range
[6] = agonist mode, −Log10(EC50 [Molar]), read-out: LNCaP-AR-wt AG pEC50 (converted)
[7] = maximum % stimulation (agonist response) over tested concentration range
[8] = agonist mode, −Log10(EC50 [Molar]), read-out: LNCaP-AR-F876L AG pEC50 (converted)

SMILES	Emax [1] [%]	IC50 [1] [µM]	EC50 [2] [µM]	Emax [2] [%]	EC50 [3] [µM]	Emax [3] [%]	IC50 [4] [µM]	Emax [4] [%]	Emax [1, 5] [%]	EC50 [2, 6] [µM]	Emax [2, 7] [%]	EC50 [3, 8] [µM]	Emax [3, 7] [%]	Emax [4, 5] [%]
CN1CCC(Oc2ccc(N3C(=S)N(c4cnc(C#N)c(C(F)(F)F)c4)C(=O)C3(C)C)cc2)CC1 [Cpd 19, 5-[4,4-dimethyl-3-[4-[(1-methyl-4-piperidyl)oxy]phenyl]-5-oxo-2-thioxo-imidazolidin-1-yl]-3-(trifluoromethyl)pyridine-2-carbonitrile]	98.1	0.525	> 15.1	0.3	> 15.1	0.2	0.871	99.6	–	–	–	–	–	–
N#Cc1cccc(N2C(=S)N(c3cnc(C#N)c(C(F)(F)F)c3)C(=O)C23CCC3)c1 [Cpd 79, 5-[8-(3-cyanophenyl)-5-oxo-7-thioxo-6,8-diazaspiro[3.4]octan-6-yl]-3-(trifluoromethyl)pyridine-2-carbonitrile]	–	0.331	–	–	–	–	0.631	–	101	> 15.1	1.6	> 15.1	0.5	101
CN1CCN(CCNC(=O)c2ccc(N3C(=S)N(c4cnc(C#N)c(C(F)(F)F)c4)C(=O)C34CCC4)cc2F)CC1 [Cpd 121, 4-[6-[6-cyano-5-(trifluoromethyl)-3-pyridyl]-5-oxo-7-thioxo-6,8-diazaspiro[3.4]octan-8-yl]-2-fluoro-N-[2-(4-methylpiperazin-1-yl)ethyl]benzamide]	–	0.575	–	–	–	–	2.75	–	98.7	> 15.1	1.2	> 15.1	3	93.6
N#Cc1ncc(N2C(=O)C3(CCC3)N(c3cccc(F)c3F)C2=S)cc1C(F)(F)F [Cpd 106, 5-[8-(2,3-difluorophenyl)-5-oxo-7-thioxo-6,8-diazaspiro[3.4]octan-6-yl]-3-(trifluoromethyl)pyridine-2-carbonitrile]	–	0.631	–	–	–	–	0.617	–	95.9	> 15.1	1.8	> 15.1	2.4	101
CNC(=O)c1ccc(N2C(=S)N(c3cnc(C#N)c(C(F)F)c3)C(=O)C23CCC3)cc1F [Cpd 39, 4-[6-[6-cyano-5-(difluoromethyl)-3-pyridyl]-5-oxo-7-thioxo-6,8-diazaspiro[3.4]octan-8-yl]-2-fluoro-N-methyl-benzamide]	–	1.55	–	–	–	–	1.82	–	94.4	> 15.1	0.2	> 15.1	0.3	97.2
N#Cc1ncc(N2C(=O)C3(CCC3)N(c3cccc(F)c3)C2=S)cc1C(F)(F)F [Cpd 90, 5-[8-(3-fluorophenyl)-5-oxo-7-thioxo-6,8-diazaspiro[3.4]octan-6-yl]-3-(trifluoromethyl)pyridine-2-carbonitrile]	–	0.631	–	–	–	–	0.513	–	98.6	> 15.1	0.5	> 15.1	1.4	100
Cc1cc(N2C(=O)C(C)(C)N(c3ccc(OC4CCN(C)CC4)cc3)C2=S)cnc1C#N [Cpd 1, 5-[4,4-dimethyl-3-[4-[(1-methyl-4-piperidyl)oxy]phenyl]-5-oxo-2-thioxo-imidazolidin-1-yl]-3-methyl-pyridine-2-carbonitrile]	–	0.513	–	–	–	–	0.871	–	101	> 15.1	0.5	> 15.1	-0.6	100
CN(CCCNC(=O)c1ccc(N2C(=S)N(c3cnc(C#N)c(C(F)(F)F)c3)C(=O)C23CCC3)cc1F)C1CCCC1 [Cpd 64, 4-[6-[6-cyano-5-(trifluoromethyl)-3-pyridyl]-5-oxo-7-thioxo-6,8-diazaspiro[3.4]octan-8-yl]-N-[3-[cyclopentyl(methyl)amino]propyl]-2-fluoro-benzamide]	–	0.174	–	–	–	–	0.282	–	98.1	> 15.1	1.2	> 15.1	0.7	98.9
Cc1cc(N2C(=O)C3(CCC3)N(c3ccc(C(=O)Nc4cccc(Cl)c4)c(F)c3)C2=S)cnc1C#N [Cpd 78, N-(3-chlorophenyl)-4-[6-(6-cyano-5-methyl-3-pyridyl)-5-oxo-7-thioxo-6,8-diazaspiro[3.4]octan-8-yl]-2-fluoro-benzamide]	–	1.05	–	–	–	–	1.32	–	95.9	> 15.1	0.7	> 15.1	1	96.5
N#Cc1ncc(N2C(=O)C3(CCC3)N(c3ccc(Oc4ccncn4)cc3)C2=S)cc1C(F)(F)F [Cpd 71, 5-[5-oxo-8-(4-pyrimidin-4-yloxyphenyl)-7-thioxo-6,8-diazaspiro[3.4]octan-6-yl]-3-(trifluoromethyl)pyridine-2-carbonitrile]	97.5	0.251	> 15.1	0.5	> 15.1	0.9	0.214	98.8	–	–	–	–	–	–
Cc1cc(N2C(=O)C3(CCC3)N(c3ccc(C(=O)Nc4ccccc4F)c(F)c3)C2=S)cnc1C#N [Cpd 11, 4-[6-(6-cyano-5-methyl-3-pyridyl)-5-oxo-7-thioxo-6,8-diazaspiro[3.4]octan-8-yl]-2-fluoro-N-(2-fluorophenyl)benzamide]	–	0.295	–	–	–	–	0.676	–	99.9	> 15.1	-0.1	> 15.1	-0.1	101
COc1cc(F)ccc1N1C(=S)N(c2cnc(C#N)c(C(F)(F)F)c2)C(=O)C12CCC2 [Cpd 94, 5-[8-(4-fluoro-2-methoxy-phenyl)-5-oxo-7-thioxo-6,8-diazaspiro[3.4]octan-6-yl]-3-(trifluoromethyl)pyridine-2-carbonitrile]	–	0.631	–	–	–	–	0.724	–	99.2	> 15.1	6	> 15.1	1.5	95
